The target of assay [1] is Mcl-1 (Homo sapiens (Human), UniProt Q07820). Briefly: TR-FRET binding assay, FITC-Bak peptide and MBP-tagged Mcl-1. The note with it: read-out: Ki for Inhibition of Mcl-1 by TR-FRET assay. As for the experimental part:
Compounds are diluted in DMSO in a 16-point, semilog serial dilution scheme. […] The plate was mixed and incubated for 3 hours at room temperature. […] TR-FRET signal is plotted and IC50 and Ki values are calculated in the same manner as the fluorescence polarization anisotropy based competition assays.

In assay [2] the test system is H929 human cancer cell lines. Description: Cellular viability / proliferation (Cell TiterGlo, 72 h). The class given is cell-based. The method in brief: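 H929 cells plated at 1,000/well in 10% FBS medium received a 2-fold serial compound dilution (top 50 μM, DMSO <1%) 24 h later. After 72 h, viability was read by CellTiter-Glo luminescence. IC50 came from a four-parameter fit.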
(In general: ATP-based viability assays read luminescence as a measure of living cells.)

The mark [3] stands for this setting: Homo sapiens, NCI-H929, 72 h, read-out: GI50 on cellular proliferation of H929 human cancer cell lines, H929 cells, 72 h, Cell TiterGlo, 10% FBS.

Molecules are shown by their SMILES. Like-named read-outs stand apart in the source and are kept apart here. Some results are limits rather than exact numbers.

Chain of Mcl-1 (Q07820 172-327): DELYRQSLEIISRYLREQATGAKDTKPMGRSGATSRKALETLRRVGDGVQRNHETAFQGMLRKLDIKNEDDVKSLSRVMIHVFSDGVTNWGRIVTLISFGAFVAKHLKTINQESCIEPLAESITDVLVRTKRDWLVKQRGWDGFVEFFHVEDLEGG

For `Cc1cc(OCCCc2c3n(c4c(-c5c(C)nn(C)c5C)c(Cl)ccc24)[C@H](C)CN(c2cn(C)c4ccc(-n5nccn5)nc24)C3=O)cc(C)c1Cl` [Example 664, (R)-7-Chloro-10-(3-(4-chloro-3,5-dimethylphenoxy)propyl)-4-methyl-2-(1-methyl-5-(2H-1,2,3-triazol-2-yl)-1H-pyrrolo[3,2-b]pyridin-3-yl)-6-(1,3,5-trimethyl-1H-pyrazol-4-yl)-3,4-dihydropyrazino[1,2-a]indol-1(2H)-one], in assay [1], the Ki (as a rule, a measure of affinity in units of concentration, obtained from inhibition or displacement) was 0.64 nM. The GI50 in assay [2] (setting [3]) was 580 nM.
With `Cc1cc(OCCCc2c3n(c4c(-c5c(C)nn(C)c5C)c(Cl)ccc24)[C@H](C)CN(c2cn(C)c4ccc(-n5ncnn5)cc24)C3=O)cc(C)c1Cl` [Example 689, (R)-7-Chloro-10-(3-(4-chloro-3,5-dimethylphenoxy)propyl)-4-methyl-2-(1-methyl-5-(2H-tetrazol-2-yl)-1H-indol-3-yl)-6-(1,3,5-trimethyl-1H-pyrazol-4-yl)-3,4-dihydropyrazino[1,2-a]indol-1(2H)-one], the Ki in assay [1] stood at 2.1 nM. For the same compound, the GI50 in assay [2] (setting [3]) is 1700 nM.
For `Cc1cc(OCCCc2c3n(c4c(-c5c(C)ncnc5C)c(Cl)ccc24)[C@H](C)CN(c2cn(C)c4ccc(-c5ncccn5)cc24)C3=O)cc(C)c1Cl` [Example 642, (R)-7-Chloro-10-(3-(4-chloro-3,5-dimethylphenoxy)propyl)-6-(4,6-dimethylpyrimidin-5-yl)-4-methyl-2-(1-methyl-5-(pyrimidin-2-yl)-1H-indol-3-yl)-3,4-dihydropyrazino[1,2-a]indol-1(2H)-one], in that order: 3 nM and 790 nM.
The like results for `COCCn1cc(N2C[C@@H](C)n3c(c(CCCOc4cc(C)c(Cl)c(C)c4)c4ccc(Cl)c(-c5c(C)nn(C)c5C)c43)C2=O)c2cc(-c3ncn(CC4CN(C(C)=O)C4)n3)ccc21` [Example 618, (R)-2-(5-(1-((1-Acetylazetidin-3-yl)methyl)-1H-1,2,4-triazol-3-yl)-1-(2-methoxyethyl)-1H-indol-3-yl)-7-chloro-10-(3-(4-chloro-3,5-dimethylphenoxy)propyl)-4-methyl-6-(1,3,5-trimethyl-1H-pyrazol-4-yl)-3,4-dihydropyrazino[1,2-a]indol-1(2H)-one] were, in that order, 3.8 nM and 360 nM.
`Cc1cc(OCCCc2c3n(c4c(-c5c(C)nn(C)c5C)c(Cl)ccc24)[C@H](C)CN(c2cn(CC4(C)COC4)c4ccc(C(=O)O)cc24)C3=O)cc(C)c1Cl` [Example 616]: in assay [1], the Ki was below 0.2 nM. Moreover, the GI50 in assay [2] (H929 cells, 72 h, Cell TiterGlo, 10% FBS, read-out: GI50 on cellular proliferation of H929 human cancer cell lines) amounted to 340 nM.
Turning to `Cc1cc(OCCCc2c3n(c4c(-c5c(C)nn(C)c5C)c(Cl)ccc24)[C@H](C)CN(c2cn(CCN4CCN(C)CC4)c4ccc(-c5ncn(C)n5)cc24)C3=O)cc(C)c1Cl` [Example 526, (R)-7-Chloro-10-(3-(4-chloro-3,5-dimethylphenoxy)propyl)-4-methyl-2-(5-(1-methyl-1H-1,2,4-triazol-3-yl)-1-(2-(4-methylpiperazin-1-yl)ethyl)-1H-indol-3-yl)-6-(1,3,5-trimethyl-1H-pyrazol-4-yl)-3,4-dihydropyrazino[1,2-a]indol-1(2H)-one], the Ki in assay [1] is below 0.2 nM. Moreover, in assay [2] (setting [3]), the GI50 was below 200 nM.
In the case of `COCc1cc(N2C[C@@H](C)n3c(c(CCCOc4cc(C)c(Cl)c(C)c4)c4ccc(Cl)c(-c5c(C)nn(C)c5C)c43)C2=O)c2c(c1)cc(C(=O)O)n2C` [Example 607, (R)-7-(7-chloro-10-(3-(4-chloro-3,5-dimethylphenoxy)propyl)-4-methyl-1-oxo-6-(1,3,5-trimethyl-1H-pyrazol-4-yl)-3,4-dihydropyrazino[1,2-a]indol-2(1H)-yl)-5-(methoxymethyl)-1-methyl-1H-indole-2-carboxylic acid], the Ki in assay [1] was below 0.2 nM. Further, the GI50 in assay [2] (setting [3]) was below 200 nM.
Take `Cc1cc(OCCCc2c3n(c4c(-c5c(C)nn(C)c5C)c(Cl)ccc24)[C@H](C)CN(c2cn(C)c4ccc(-n5nccn5)cc24)C3=O)cc(C)c1Cl` [Example 662, (R)-7-Chloro-10-(3-(4-chloro-3,5-dimethylphenoxy)propyl)-4-methyl-2-(1-methyl-5-(2H-1,2,3-triazol-2-yl)-1H-indol-3-yl)-6-(1,3,5-trimethyl-1H-pyrazol-4-yl)-3,4-dihydropyrazino[1,2-a]indol-1(2H)-one]: the Ki in assay [1] came to 0.93 nM. In addition, in assay [2] (setting [3]), the GI50 came to 1900 nM.
For `Cc1cc(OCCCc2c3n(c4c(-c5c(C)nn(C)c5C)c(Cl)ccc24)[C@H](C)CN(c2cc(N(C)C(=O)CN4CCCC4)cc4c(C(=O)O)cn(C)c24)C3=O)cc(C)c1Cl` [Example 613, (R)-7-(7-chloro-10-(3-(4-chloro-3,5-dimethylphenoxy)propyl)-4-methyl-1-oxo-6-(1,3,5-trimethyl-1H-pyrazol-4-yl)-3,4-dihydropyrazino[1,2-a]indol-2(1H)-yl)-1-methyl-5-(N-methyl-2-(pyrrolidin-1-yl)acetamido)-1H-indole-3-carboxylic acid], the Ki in assay [1] was 1.9 nM.
Regarding `Cc1cc(OCCCc2c3n(c4c(-c5c(C)nn(C)c5C)c(Cl)ccc24)[C@H](C)CN(c2cc(NC(=O)CN4CCN(C)CC4)cc4c(C(=O)O)cn(C)c24)C3=O)cc(C)c1Cl` [Example 554, (R)-7-(7-chloro-10-(3-(4-chloro-3,5-dimethylphenoxy)propyl)-4-methyl-1-oxo-6-(1,3,5-trimethyl-1H-pyrazol-4-yl)-3,4-dihydropyrazino[1,2-a]indol-2(1H)-yl)-1-methyl-5-(2-(4-methylpiperazin-1-yl)acetamido)-1H-indole-3-carboxylic acid], the Ki in assay [1] was 0.26 nM.
With `Cc1cc(OCCCc2c3n(c4c(-c5c(C)nn(C)c5C)c(Cl)ccc24)[C@H](C)CN(c2cc(CN4CCC(Oc5ccc(Cl)cc5)CC4)cc4c(C(=O)O)cn(C)c24)C3=O)cc(C)c1Cl` [Example 547, (R)-7-(7-chloro-10-(3-(4-chloro-3,5-dimethylphenoxy)propyl)-4-methyl-t-oxo-6-(1,3,5-trimethyl-1H-pyrazol-4-yl)-3,4-dihydropyrazino[1,2-a]indol-2(1H)-yl)-5-((4-(4-chlorophenoxy)piperidin-1-yl)methyl)-1-methyl-1H-indole-3-carboxylic acid], the Ki in assay [1] is 10 nM.
Regarding `Cc1cc(OCCCc2c3n(c4c(-c5c(C)nn(C)c5C)c(Cl)ccc24)[C@H](C)CN(c2cc(NC(=O)CCN4CCN(C)CC4)cc4c(C(=O)O)cn(C)c24)C3=O)cc(C)c1Cl` [Example 551, (R)-7-(7-chloro-10-(3-(4-chloro-3,5-dimethylphenoxy)propyl)-4-methyl-1-oxo-6-(1,3,5-trimethyl-1H-pyrazol-4-yl)-3,4-dihydropyrazino[1,2-a]indol-2(1H)-yl)-1-methyl-5(3-(4-methylpiperazin-1-yl)propanamido)-1H-indole-3-carboxylic acid], the Ki in assay [1] was 0.3 nM.
Take `COCCOc1cc(N2C[C@@H](C)n3c(c(CCCOc4cc(C)c(Cl)c(C)c4)c4ccc(Cl)c(-c5c(C)nn(C)c5C)c43)C2=O)c2c(c1)cc(C(=O)O)n2C` [Example 711, (M, R)-7-(7-chloro-10-(3-(4-chloro-3,5-dimethylphenoxy)propyl)-4-methyl-1-oxo-6-(1,3,5-trimethyl-1H-pyrazol-4-yl)-3,4-dihydropyrazino[1,2-a]indol-2(1H)-yl)-5-(2-methoxyethoxy)-1-methyl-1H-indole-2-carboxylic acid]: the inhibition constant Ki in assay [1] was below 0.2 nM.
With `Cc1cc(N2C[C@@H](C)n3c(c(CCCOc4cc(C)c(Cl)c(C)c4)c4ccc(Cl)c(-c5c(C)nn(C)c5C)c43)C2=O)c2c(c1)cc(C(=O)O)n2Cc1ccccn1` [Example 713, (M, R)-7-(7-chloro-10-(3-(4-chloro-3,5-dimethylphenoxy)propyl)-4-methyl-1-oxo-6-(1,3,5-trimethyl-1H-pyrazol-4-yl)-3,4-dihydropyrazino[1,2-a]indol-2(1H)-yl)-5-methyl-1-(pyridin-2-ylmethyl)-1H-indole-2-carboxylic acid], the Ki in assay [1] was below 0.2 nM.
On the same count and under the same terms, the same measure for `COCCOc1cc(N2C[C@@H](C)n3c(c(CCCOc4cc(C)c(Cl)c(C)c4)c4ccc(Cl)c(-c5c(C)nn(C)c5C)c43)C2=O)c2c(c1)cc(C(=O)O)n2C` [Example 712, (P, R)-7-(7-chloro-10-(3-(4-chloro-3,5-dimethylphenoxy)propyl)-4-methyl-1-oxo-6-(1,3,5-trimethyl-1H-pyrazol-4-yl)-3,4-dihydropyrazino[1,2-a]indol-2(1H)-yl)-5-(2-methoxyethoxy)-1-methyl-1H-indole-2-carboxylic acid]: below 0.2 nM.
In the case of `COCCn1c(C(=O)O)cc2cc(C)cc(N3C[C@@H](C)n4c(c(CCCOc5cc(C)c(Cl)c(C)c5)c5ccc(Cl)c(-c6c(C)nn(C)c6C)c54)C3=O)c21` [Example 710, (P, R)-7-(7-chloro-10-(3-(4-chloro-3,5-dimethylphenoxy)propyl)-4-methyl-1-oxo-6-(1,3,5-trimethyl-1H-pyrazol-4-yl)-3,4-dihydropyrazino[1,2-a]indol-2(1H)-yl)-1-(2-methoxyethyl)-5-methyl-1H-indole-2-carboxylic acid], in assay [1], the Ki is below 0.2 nM.
For `Cc1cc(OCCCc2c3n(c4c(-c5c(C)nn(C)c5C)c(Cl)ccc24)[C@H](C)CN(c2cc(N(C)C(=O)CN4CCN(C)CC4)cc4c(C(=O)O)cn(C)c24)C3=O)cc(C)c1Cl` [Example 604, (R)-7-(7-chloro-10-(3-(4-chloro-3,5-dimethylphenoxy)propyl)-4-methyl-1-oxo-6-(1,3,5-trimethyl-1H-pyrazol-4-yl)-3,4-dihydropyrazino[1,2-a]indol-2(1H)-yl)-t-methyl-5-(N-methyl-2-(4-methylpiperazin-1-yl)acetamido)-1H-indole-3-carboxylic acid], in assay [1], the Ki is 0.73 nM.

The record behind these values is patent US11596639B2, “Substituted indole Mcl-1 inhibitors” (Vanderbilt University, priority 2016, dated 2023).
